Read-outs that look alike come from different tables or passages of the source.
Columns and labels:
[1] = biological target: T1, CapB2 and CapA1Ct (GST-CapA1Ct) (Staphylococcus aureus, UniProt A8YPQ5+A8YPQ6); settings: 10 µM ATP, 5 mM MgCl2, pH 7.5, 37°C; labelled compound; GST-CapA1Ct(ΔN222) as activator
[2] = biological target: T1, CapB2 and CapA1Ct (GST-CapA1Ct); settings: 10 µM ATP, 5 mM MgCl2, pH 7.5, 37°C; labelled compound; GST-CapA1Ct as activator
[3] = biological target: T2, CapB1 (Met1 to Glu228), as it stands in the CapA1B1 chimera (Staphylococcus aureus, UniProt A8YPQ8 1-228); assay: crystal structure; settings: both partners purified
T2 construct: also called Cap5B1; source: E. coli BL21(DE3), purified (IMAC, gel filtration) as part of the chimera CapA1B1
T2 sequence: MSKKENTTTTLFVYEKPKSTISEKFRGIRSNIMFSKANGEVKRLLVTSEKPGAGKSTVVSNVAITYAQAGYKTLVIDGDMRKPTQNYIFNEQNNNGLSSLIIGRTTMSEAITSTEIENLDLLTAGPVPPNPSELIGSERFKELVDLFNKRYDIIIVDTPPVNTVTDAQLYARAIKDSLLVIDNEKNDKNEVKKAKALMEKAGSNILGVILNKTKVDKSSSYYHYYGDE

In the case of `Nc1ncnc2c1ncn2[C@@H]1O[C@H](COP(=O)(O)OP(=O)(O)OP(=O)(O)O)[C@@H](O)[C@H]1O` [ATP], the “autophosphorylation with [γ-32P]ATP, SDS-PAGE, autoradiography” value [1] is reported as “the Asn222 deletion did not affect the CapA1 ability to trigger CapB2 autophosphorylation” and the “autophosphorylation with [γ-32P]ATP, SDS-PAGE, autoradiography” value [2] is reported as “CapB2 was incubated in the presence of radioactive ATP and different (wild type or mutated)”.

B1: CapA1 C-terminal juxtamembrane fragment (Val194 to Asn222), as it stands in the CapA1B1 chimera (domain or fragment)
chain: VIFDKRIKDEEDVEKELGLPVLGSIQKFN
notes: also called Cap5A1; source: E. coli BL21(DE3), purified (IMAC, gel filtration) as part of the chimera CapA1B1
B1: binds [3].

Reference: paper PMC3795738 (PLoS ONE, 2013)
